Patent US20260226068A1, “IMIDAZOTRIAZINE IL-17A MODULATORS AND USES THEREOF” (DICE ALPHA, INC., priority 2023, published 2026)

Assays:
IL-17A/A = molecular target: T1, IL-17A/A (Homo sapiens, UniProt Q16552); assay: IL-17A/A HEK-Blue cell assay (SEAP reporter); assay type: cell-based; settings: HEK-Blue IL-17A reporter cells, IL17A/A 5 ng/mL, 20 hours, SEAP read at A630; read-out: HEK-Blue IL17AA (IC50 for IL-17A/A inhibition)
T1 construct: purchased Genscript Z03228
T1 sequence (Q16552 24-155): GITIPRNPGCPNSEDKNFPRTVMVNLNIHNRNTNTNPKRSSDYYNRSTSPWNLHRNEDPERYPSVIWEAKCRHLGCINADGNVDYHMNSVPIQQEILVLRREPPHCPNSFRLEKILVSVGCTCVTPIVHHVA

IL-17A/F = molecular target: T2, IL-17A/F (Homo sapiens, UniProt Q16552+Q96PD4); assay: IL-17A/F HEK-Blue cell assay (SEAP reporter); assay type: cell-based; settings: HEK-Blue IL-17A reporter cells, IL17A/F 5 ng/mL, 20 hours, SEAP read at A630; read-out: HEK-Blue IL17AF (IC50 for IL-17A/F inhibition)
T2 construct: purchased R&D Systems
T2 sequence (Q16552 24-155): T1 sequence (Q16552 24-155)
T2 sequence (Q96PD4 31-163): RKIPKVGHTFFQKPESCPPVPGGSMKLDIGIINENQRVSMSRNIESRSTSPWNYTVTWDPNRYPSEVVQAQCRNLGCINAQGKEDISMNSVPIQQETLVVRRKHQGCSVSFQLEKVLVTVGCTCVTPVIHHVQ

In the case of Cn1nccc1C(=O)N[C@H](c1cn2nc(C[C@H]3C[C@@H](C(F)(F)F)CNC3=O)c(CC3COC3)nc2n1)C1CCCCCC1 [Compound 377, N—((S)-cycloheptyl(3-(oxetan-3-ylmethyl)-2-(((3R,5R)-2-oxo-5-(trifluoromethyl)piperidin-3-yl)methyl)imidazo[1,2-b][1,2,4]triazin-6-yl)methyl)-1-methyl-1H-pyrazole-5-carboxamide], the IC50 (IL-17A/A) is reported as less than 100 nM and the IC50 (IL-17A/F) is reported as 100 to 1000 nM.

O=C(N[C@H](c1cn2nc(C[C@H]3C[C@@H](C(F)(F)F)CNC3=O)c(C3CCOCC3)nc2n1)C1CCC(F)(F)CC1)c1ccnn1CCN1CCOCC1 [Compound 378, N—((S)-(4,4-difluorocyclohexyl)(2-(((3R,5R)-2-oxo-5-(trifluoromethyl)piperidin-3-yl)methyl)-3-(tetrahydro-2H-pyran-4-yl)imidazo[1,2-b][1,2,4]triazin-6-yl)methyl)-1-(2-morpholinoethyl)-1H-pyrazole-5-carboxamide] showed an IC50 (IL-17A/A) of less than 100 nM and an IC50 (IL-17A/F) greater than 1000 nM.

CCn1nccc1C(=O)N[C@H](c1cn2nc(C[C@H]3CCCNC3=O)c(C3CCOCC3)nc2n1)C1CCC(F)(F)CC1 [Compound 379] was tested, and the IC50 (IL-17A/A) was less than 100 nM and the IC50 (IL-17A/F) was greater than 1000 nM.

In the case of CCn1nccc1C(=O)N[C@H](c1cn2nc(C[C@@H]3CCCNC3=O)c(C3CCOCC3)nc2n1)C1CCC(F)(F)CC1 [Compound 380], the IC50 (IL-17A/A) is reported as less than 100 nM and the IC50 (IL-17A/F) is reported as greater than 1000 nM.

CCn1ncnc1C(=O)N[C@H](c1cn2nc(C[C@H]3C[C@@H](C(F)(F)F)CNC3=O)c(C3CCOCC3)nc2n1)[C@H]1CC[C@H](C)CC1 [Compound 383, 1-ethyl-N—((S)-((1r,4S)-4-methylcyclohexyl)(2-(((3R,5R)-2-oxo-5-(trifluoromethyl)piperidin-3-yl)methyl)-3-(tetrahydro-2H-pyran-4-yl)imidazo[1,2-b][1,2,4]triazin-6-yl)methyl)-1H-1,2,4-triazole-5-carboxamide] gave an IC50 (IL-17A/A) of less than 100 nM and an IC50 (IL-17A/F) of 100 to 1000 nM.

CCn1ncnc1C(=O)N[C@H](c1cn2nc(C[C@H]3C[C@@H](C(F)(F)F)CNC3=O)c(C3CCOCC3)nc2n1)C(C1CC1)C1CC1 [Compound 385, N—((S)-2,2-dicyclopropyl-1-(2-(((3R,5R)-2-oxo-5-(trifluoromethyl)piperidin-3-yl)methyl)-3-(tetrahydro-2H-pyran-4-yl)imidazo[1,2-b][1,2,4]triazin-6-yl)ethyl)-1-ethyl-1H-1,2,4-triazole-5-carboxamide] gave an IC50 (IL-17A/A) of less than 100 nM and an IC50 (IL-17A/F) greater than 1000 nM.

CCn1ncnc1C(=O)N[C@H](c1cn2nc(C[C@H]3C[C@@H](C(F)(F)F)CNC3=O)c(C(C)C)nc2n1)C1CCC(F)(F)CC1 [Compound 386, N—((S)-(4,4-difluorocyclohexyl)(3-isopropyl-2-(((3R,5R)-2-oxo-5-(trifluoromethyl)piperidin-3-yl)methyl)imidazo[1,2-b][1,2,4]triazin-6-yl)methyl)-1-ethyl-1H-1,2,4-triazole-5-carboxamide] was tested, and the IC50 (IL-17A/A) was less than 100 nM and the IC50 (IL-17A/F) was greater than 1000 nM.

With CCn1ncnc1C(=O)N[C@H](c1cn2nc(C[C@H]3C[C@H](C)CNC3=O)c(C3CCOCC3)nc2n1)C1CCC(F)(F)CC1 [Compound 387] the IC50 (IL-17A/A) was 100 to 1000 nM and the IC50 (IL-17A/F) was greater than 1000 nM.

CCn1ncnc1C(=O)N[C@H](c1cn2nc(C[C@@H]3C[C@H](C)CNC3=O)c(C3CCOCC3)nc2n1)C1CCC(F)(F)CC1 [Compound 388] was tested, and the IC50 (IL-17A/A) was less than 100 nM and the IC50 (IL-17A/F) was greater than 1000 nM.

CCn1nccc1C(=O)N[C@H](c1cn2nc(C[C@H]3C[C@@H](C)CNC3=O)c(C(C)C)nc2n1)C1CCC(F)(F)CC1 [Compound 389] was tested, and the IC50 (IL-17A/A) was 100 to 1000 nM and the IC50 (IL-17A/F) was greater than 1000 nM.

In the case of CCn1nccc1C(=O)N[C@H](c1cn2nc(C[C@@H]3C[C@@H](C)CNC3=O)c(C(C)C)nc2n1)C1CCC(F)(F)CC1 [Compound 390], the IC50 (IL-17A/A) is reported as less than 100 nM and the IC50 (IL-17A/F) is reported as 100 to 1000 nM.

CCn1nccc1C(=O)N[C@H](c1cn2nc(C[C@H]3C[C@H](C)CNC3=O)c(C(C)C)nc2n1)C1CCC(F)(F)CC1 [Compound 391] gave an IC50 (IL-17A/A) of less than 100 nM and an IC50 (IL-17A/F) greater than 1000 nM.

Work on CCn1nccc1C(=O)N[C@H](c1cn2nc(C[C@@H]3C[C@H](C)CNC3=O)c(C(C)C)nc2n1)C1CCC(F)(F)CC1 [Compound 392] yielded an IC50 (IL-17A/A) of less than 100 nM and an IC50 (IL-17A/F) greater than 1000 nM.
